Literature values as cited in patent US20210128584A1, “USE OF GLUCOCORTICOID RECEPTOR ANTAGONISTS FOR THE TREATMENT OF AMYOTROPHIC LATERAL SCLEROSIS” (Corcept Therapeutics Incorporated, priority 2008, published 2021).

For `CC#C[C@]1(O)CC[C@H]2[C@@H]3CCC4=CC(=O)CCC4=C3[C@@H](c3ccc(N(C)C)cc3)C[C@@]21C` [Mifepristone, 17β-hydroxy-11β-(4-dimethyl-aminophenyl)-17α-(1-propynyl)-estra-4,9-dien-3-one], the “fraction of the daily dose excreted in the urine” value is given as “less than 0.5%”.
